Laboratory results published in US12269800B2, “Delivery of therapeutic alkaloid compounds” (priority 2021, dated 2025).
Read-outs that look alike come from different tables or passages of the source.

Tests used:
[1] = Hydrolysis Assay of Example A2, Condition 1 (SGF with pepsin, pH 1.5, 37° C.); assay type: physicochemical; settings: SGF with pepsin pH 1.5, 37° C., 0.5 mM
[2] = assay type: physicochemical; settings: DI water, 25° C., 0.5 mM
[3] = Plasma Stability Assay of Example A3, mouse plasma; settings: % of prodrug compound remaining, 37° C.
[4] = Plasma Stability Assay of Example A3, human plasma; settings: % of prodrug compound remaining, 37° C.
[5] = 5 µM
Description: (§1) 50 uL aliquots of positive controls and test compounds spiked into rat or human plasma (n=2) were added to a pre-warmed plate (37° C.) and shaken at 50 rpm. At each respective time point, the reaction was stopped by adding 500 μL of acetonitrile containing internal standards (100 nM aprozolam, 200 nM caffeine, 100 nM tolbutamide). All samples were vortexed for 10 minutes, followed by centrifugation at 3,220 g for 30 minutes to precipitate proteins. 100 μL of the supernatant is transferred to a new plate. The supernatant will be diluted with ultrapure water according to the LC-MS signal response and peak shape.

[6] = 5 µM; remark: listed apart in the source
Description: as §1

Structure (SMILES) | Mouse Plasma Prodrug (%) ([3]; 0.0 min) | Mouse Plasma Prodrug (%) ([3]; 15 min) | Mouse Plasma Prodrug (%) ([3]; 30 min) | Mouse Plasma Prodrug (%) ([3]; 60 min) | Mouse Plasma Prodrug (%) ([3]; 120 min) | Mouse Plasma Prodrug (%) ([3]; 240 min) | Human Plasma Prodrug (%) ([4]; 0.0 min) | Human Plasma Prodrug (%) ([4]; 15 min) | Human Plasma Prodrug (%) ([4]; 30 min) | Human Plasma Prodrug (%) ([4]; 60 min) | Human Plasma Prodrug (%) ([4]; 120 min) | Human Plasma Prodrug (%) ([4]; 240 min) | Rat Plasma Prodrug (%) ([5]; 0 min) | Rat Plasma Prodrug (%) ([5]; 10 min) | Rat Plasma Prodrug (%) ([5]; 30 min) | Rat Plasma Prodrug (%) ([5]; 60 min) | Rat Plasma Prodrug (%) ([5]; 120 min) | Rat Plasma Prodrug (%) ([5]; 240 min) | Human Plasma Prodrug (%) ([6]; 0 min) | Human Plasma Prodrug (%) ([6]; 10 min) | further results
COc1ccc([C@]23CCN(C)[C@H]2CC2(CC3)OCC(COc3ccccc3OC)O2)cc1OC (stereo partly drawn) [Compound 216, (3′aS,7′aS)-3′a-(3,4-dimethoxyphenyl)-4-[(2-methoxyphenoxy)methyl]-1′-methyl-spiro[1,3-dioxolane-2,6′-2,3,4,5,7,7a-hexahydroindole]] | – | – | – | – | – | – | – | – | – | – | – | – | – | – | – | – | – | – | – | – | Condition 1 Conversion (%) ([1]; time 1 min): 0%; Condition 1 Conversion (%) ([1]; time 5 min): 0%; Condition 1 Conversion (%) ([1]; time 30 min): 0%; Condition 1 Conversion (%) ([1]; time 1 h): 0%; Condition 1 Conversion (%) ([1]; time 4 h): 0%; Condition 1 Conversion (%) ([1]; time 24 h): 0%; Condition 2 Conversion (%) ([2]; time 1 min): 0%; Condition 2 Conversion (%) ([2]; time 5 min): 0%; Condition 2 Conversion (%) ([2]; time 30 min): 0%; Condition 2 Conversion (%) ([2]; time 1 h): 0%; Condition 2 Conversion (%) ([2]; time 4 h): 0%; Condition 2 Conversion (%) ([2]; time 24 h): 0%
COc1ccc([C@@]23CCC(=NNC(=O)c4ccc(F)cc4)C[C@@H]2N(C)CC3)cc1OC [Compound 220, N-[[(3aS)-3a-(3,4-dimethoxyphenyl)-1-methyl-2,3,4,5,7,7a-hexahydroindol-6-ylidene]amino]-4-fluoro-benzamide] | – | – | – | – | – | – | – | – | – | – | – | – | – | – | – | – | – | – | – | – | Condition 2 Conversion (%) ([2]; time 1 min): 20.02%; Condition 2 Conversion (%) ([2]; time 5 min): 21.53%; Condition 2 Conversion (%) ([2]; time 30 min): 22.27%; Condition 2 Conversion (%) ([2]; time 1 h): 55.36%; Condition 2 Conversion (%) ([2]; time 4 h): 88.25%; Condition 2 Conversion (%) ([2]; time 24 h): 89.93%
COc1ccc([C@@]23CCC(=NNC(=O)CCCC(=O)O)C[C@@H]2N(C)CC3)cc1OC [Compound 246, 5-(2-((3aS,7aS)-3a-(3,4-dimethoxyphenyl)-1-methyloctahydro-6H-indol-6-ylidene)hydrazineyl)-5-oxopentanoic acid] | – | – | – | – | – | – | – | – | – | – | – | – | – | – | – | – | – | – | – | – | Condition 1 Conversion (%) ([1]; time 1 min): 100%; Condition 1 Conversion (%) ([1]; time 5 min): 100%; Condition 1 Conversion (%) ([1]; time 30 min): 100%; Condition 1 Conversion (%) ([1]; time 1 h): 100%; Condition 1 Conversion (%) ([1]; time 4 h): 100%; Condition 1 Conversion (%) ([1]; time 24 h): 100%; Condition 2 Conversion (%) ([2]; time 1 min): 40%; Condition 2 Conversion (%) ([2]; time 5 min): 50%; Condition 2 Conversion (%) ([2]; time 30 min): 60%; Condition 2 Conversion (%) ([2]; time 1 h): 75%; Condition 2 Conversion (%) ([2]; time 4 h): 100%; Condition 2 Conversion (%) ([2]; time 24 h): 100%
COc1ccc([C@@]23CCC(OC(=O)c4ccc(F)cc4)=C[C@@H]2N(C)CC3)cc1OC [Compound 353, (3aS,7aS)-3a-(3,4-dimethoxyphenyl)-1-methyl-2,3,3a,4,5,7a-hexahydro-1H-indol-6-yl 4-fluorobenzoate] | 100 | 0 | 0 | 0 | 0 | 0 | 100 | – | – | – | – | – | – | – | – | – | – | – | – | – | –
COc1ccc([C@@]23CCC(OC(=O)c4ccc(C#N)cc4)=C[C@@H]2N(C)CC3)cc1OC [Compound 354, (3aS,7aS)-3a-(3,4-dimethoxyphenyl)-1-methyl-2,3,3a,4,5,7a-hexahydro-1H-indol-6-yl 4-cyanobenzoate] | 100 | 5 | 7 | 5 | 4 | 0 | 100 | 93 | 72 | 42 | 13 | 1 | – | – | – | – | – | – | – | – | –
COc1ccc([C@@]23CCC(OC(=O)c4ccc(N(C)C)cc4)=C[C@@H]2N(C)CC3)cc1OC [Compound 355, [(3aS,7aS)-3a-(3,4-dimethoxyphenyl)-1-methyl-3,4,5,7a-tetrahydro-2H-indol-6-yl] 4-(dimethylamino)benzoate] | 100.0 | – | – | 9.9 | 0.5 | 0.0 | 100.0 | >99 | >99 | >99 | >99 | – | – | – | – | – | – | – | – | – | –
COc1ccc([C@@]23CCC(OC(=O)c4ccc(C(C)C)cc4)=C[C@@H]2N(C)CC3)cc1OC [Compound 371, (3aS,7aS)-3a-(3,4-dimethoxyphenyl)-1-methyl-2,3,3a,4,5,7a-hexahydro-1H-indol-6-yl 4-isopropylbenzoate] | 100 | 10 | 0 | 0 | 0 | 0 | 100 | 99 | 92 | 87 | 78 | 27 | 100.0 | 5.0 | 0.2 | 0.1 | 0.0 | 0.0 | 100.0 | >99 | Human Plasma Prodrug (%) ([6]; 30 min): 94.4%; Human Plasma Prodrug (%) ([6]; 60 min): 90.7%; Human Plasma Prodrug (%) ([6]; 120 min): 91.3%; Human Plasma Prodrug (%) ([6]; 240 min): 78.0%
COc1ccc([C@@]23CCC(OC(=O)c4c(C)cccc4C)=C[C@@H]2N(C)CC3)cc1OC [Compound 372, (3aS,7aS)-3a-(3,4-dimethoxyphenyl)-1-methyl-2,3,3a,4,5,7a-hexahydro-1H-indol-6-yl 2,6-dimethylbenzoate] | 100 | 92 | 91 | 88 | 73 | 64 | 100 | 97 | 99 | 94 | 81 | 38 | 100.0 | >99 | >99 | >99 | 98.4 | >99 | 100.0 | >99 | Human Plasma Prodrug (%) ([6]; 30 min): >99%; Human Plasma Prodrug (%) ([6]; 60 min): >99%; Human Plasma Prodrug (%) ([6]; 120 min): >99%; Human Plasma Prodrug (%) ([6]; 240 min): >99%
COc1ccc([C@@]23CCC(OC(=O)c4cccc(C)c4C)=C[C@@H]2N(C)CC3)cc1OC [Compound 373, (3aS,7aS)-3a-(3,4-dimethoxyphenyl)-1-methyl-2,3,3a,4,5,7a-hexahydro-1H-indol-6-yl 2,3-dimethylbenzoate] | 100 | 82 | 64 | 41 | 12 | 1 | 100 | – | – | – | – | – | 100.0 | 81.0 | 58.4 | 26.8 | 5.2 | 1.3 | 100.0 | 96.3 | Human Plasma Prodrug (%) ([6]; 30 min): >99%; Human Plasma Prodrug (%) ([6]; 60 min): 94.8%; Human Plasma Prodrug (%) ([6]; 120 min): 89.9%; Human Plasma Prodrug (%) ([6]; 240 min): 96.3%
COc1ccc([C@@]23CCC(OC(=O)c4cccc(C)c4)=C[C@@H]2N(C)CC3)cc1OC [Compound 374, (3aS,7aS)-3a-(3,4-dimethoxyphenyl)-1-methyl-2,3,3a,4,5,7a-hexahydro-1H-indol-6-yl 3-methylbenzoate] | 100 | 33 | 4 | 0 | 0 | 0 | 100 | 98 | 88 | 84 | 62 | 11 | 100.0 | 9.7 | 0.3 | 0.1 | 0.0 | 0.0 | 100.0 | >99 | Human Plasma Prodrug (%) ([6]; 30 min): >99%; Human Plasma Prodrug (%) ([6]; 60 min): >99%; Human Plasma Prodrug (%) ([6]; 120 min): >99%; Human Plasma Prodrug (%) ([6]; 240 min): 95.4%
COc1ccc([C@@]23CCC(OC(=O)c4cccc(C(C)(C)C)c4)=C[C@@H]2N(C)CC3)cc1OC [Compound 375, (3aS,7aS)-3a-(3,4-dimethoxyphenyl)-1-methyl-2,3,3a,4,5,7a-hexahydro-1H-indol-6-yl 3-(tert-butyl)benzoate] | 100 | 11 | 2 | 0 | 0 | 0 | 100 | >99 | >99 | 97 | 57 | 26 | – | – | – | – | – | – | – | – | –
